In patent US20140171520A1, “HIGHLY SOLUBLE STEVIA SWEETENER” (priority 2011, published 2014):
Where two headings read alike, the source gives them in different places. One block for each molecule: values may come before it.

How the values were obtained:
[1] = cited from earlier work
[2] = Solubility in reverse osmosis (RO) water at room temperature; format: physicochemical; details: g per 100 g solvent
Procedure: Hereinafter, unless specified otherwise the solubility of material is determined in reverse osmosis (RO) water at room temperature. Where the solubility is expressed as “%” it to be understood as number of grams of material soluble in 100 grams of solvent.

[3] = at 50° C.; U.S. patent application Ser. No. 12/612,374; cited from earlier work

Molecule: C=C1C[C@@]23CC[C@H]4[C@@](C)(CCC[C@@]4(C)C(=O)O[C@@H]4O[C@H](CO)[C@@H](O)[C@H](O)[C@H]4O)[C@@H]2CC[C@]1(O[C@@H]1O[C@H](CO)[C@@H](O)[C@H](O[C@@H]2O[C@H](CO)[C@@H](O)[C@H](O)[C@H]2O)[C@H]1O[C@@H]1O[C@H](CO)[C@@H](O)[C@H](O)[C@H]1O)C3 [Form 1, Rebaudioside A]
- solubility among Reb A polymorph forms ([1]; Prakash et al. 2008): lowest solubility
- Rate of dissolution in H2O at 25° C. ([1]; in 60 minutes): (<0.2% in

Molecule: C=C1C[C@@]23CC[C@H]4[C@@](C)(CCC[C@@]4(C)C(=O)O[C@@H]4O[C@H](CO)[C@@H](O)[C@H](O)[C@H]4O)[C@@H]2CC[C@]1(O[C@@H]1O[C@H](CO)[C@@H](O)[C@H](O[C@@H]2O[C@H](CO)[C@@H](O)[C@H](O)[C@H]2O)[C@H]1O[C@@H]1O[C@H](CO)[C@@H](O)[C@H](O)[C@H]1O)C3 [Form 2, Rebaudioside A]
- Rate of dissolution in H2O at 25° C. ([1]; in 5 minutes): (<30% in 5

Molecule: C=C1C[C@@]23CC[C@H]4[C@@](C)(CCC[C@@]4(C)C(=O)O[C@@H]4O[C@H](CO)[C@@H](O)[C@H](O)[C@H]4O)[C@@H]2CC[C@]1(O[C@@H]1O[C@H](CO)[C@@H](O)[C@H](O[C@@H]2O[C@H](CO)[C@@H](O)[C@H](O)[C@H]2O)[C@H]1O[C@@H]1O[C@H](CO)[C@@H](O)[C@H](O)[C@H]1O)C3 [Form 3, Rebaudioside A]
- Rate of dissolution in H2O at 25° C. ([1]; in 5 minutes): High (>30%

Molecule: C=C1C[C@@]23CC[C@H]4[C@@](C)(CCC[C@@]4(C)C(=O)O[C@@H]4O[C@H](CO)[C@@H](O)[C@H](O)[C@H]4O)[C@@H]2CC[C@]1(O[C@@H]1O[C@H](CO)[C@@H](O)[C@H](O[C@@H]2O[C@H](CO)[C@@H](O)[C@H](O)[C@H]2O)[C@H]1O[C@@H]1O[C@H](CO)[C@@H](O)[C@H](O)[C@H]1O)C3 [Form 4, Rebaudioside A]
- Rate of dissolution in H2O at 25° C. ([1]; in 5 minutes): High (>35%

- water solubility [2]: > 5%
- water solubility ([2]; listed as rebaudioside A): 5.5%
Molecule: C=C1C[C@@]23CC[C@H]4[C@@](C)(CCC[C@@]4(C)C(=O)O[C@@H]4O[C@H](CO)[C@@H](O)[C@H](O)[C@H]4O)[C@@H]2CC[C@]1(O[C@@H]1O[C@H](CO)[C@@H](O)[C@H](O[C@@H]2O[C@H](CO)[C@@H](O)[C@H](O)[C@H]2O)[C@H]1O[C@@H]1O[C@H](CO)[C@@H](O)[C@H](O)[C@H]1O)C3 [Reb A, Rebaudioside A]

Molecule: C=C1C[C@@]23CC[C@H]4[C@@](C)(CCC[C@@]4(C)C(=O)O[C@@H]4O[C@H](CO)[C@@H](O)[C@H](O)[C@H]4O[C@@H]4O[C@H](CO)[C@@H](O)[C@H](O)[C@H]4O)[C@@H]2CC[C@]1(O[C@@H]1O[C@H](CO)[C@@H](O)[C@H](O[C@@H]2O[C@H](CO)[C@@H](O)[C@H](O)[C@H]2O)[C@H]1O[C@@H]1O[C@H](CO)[C@@H](O)[C@H](O)[C@H]1O)C3 [anhydrous form of Reb D, Rebaudioside D, reference compound]
- solubility [3]: about 0.15%

- water solubility [2]: 0.01%
Molecule: Rebaudioside B [Reb B]
